The supplement of paper PMC11208160

Assay: recombinant UMI read abundance after kanamycin selection (control-corrected) (log10(CPM+1)); higher = more efficient recombination; extreme values may be limits of the assay; sequences stand for … in AGTGCAGAGAAAATCGGCCAGTTTTCTCTGCCTGCAGTCCGCATGCCGTGGGACCCCTTGGGTTCTAACCTGTTGCCTAGATTTATGCAGCGGACTGCCTTTCTCCCAAAGTGATAAACCGG…AGGTTGGTTTCACT; site = the 11-nt donor
Method in brief: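 For the IS621 bridge recombinase, a pooled Escherichia coli screen tested donor and donor-binding-loop pairs. Cells received the pair library together with a target plasmid encoding a fixed target and T7-inducible recombinase, then went onto IPTG (0.07 mM) plus kanamycin or unselected plates in duplicate. After PCR across the donor–target junction and sequencing, recombinant UMI counts were normalized to CPM, averaged, and scaled by control-derived factors. Each value is given as log10(CPM+1).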
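Note: IS621 bridge recombinase in Escherichia coli cells against a fixed T5 target plasmid.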

| Sequence | recombinant UMI read abundance (log10) |
| --- | --- |
| ATCTATACATGGACCGGTTTTCCCGGTAATCCGTATTTGAC (site AACTATACTGT) | 0.0062 |
| ATCTATACATGGACCGGTTTTCCCGGTAATCCGTATTTGAC (site ACCTATACTGT) | 0.944 |
| ATCTATACATGGACCGGTTTTCCCGGTAATCCGTATTTGAC (site AGCTATACTGT) | 1.66 |
| ATCTATACATGGACCGGTTTTCCCGGTAATCCGTATTTGAC (site ATATATACTGT) | 0.408 |
| ATCTATACATGGACCGGTTTTCCCGGTAATCCGTATTTGAC (site ATCAATACTGT) | 0 |
| ATCTATACATGGACCGGTTTTCCCGGTAATCCGTATTTGAC (site ATCCATACTGT) | 1.7 |
| ATCTATACATGGACCGGTTTTCCCGGTAATCCGTATTTGAC (site ATCGATACTGT) | 0 |
| ATCTATACATGGACCGGTTTTCCCGGTAATCCGTATTTGAC (site ATCTAAACTGT) | 0 |
| ATCTATACATGGACCGGTTTTCCCGGTAATCCGTATTTGAC (site ATCTACACTGT) | 0.552 |
| ATCTATACATGGACCGGTTTTCCCGGTAATCCGTATTTGAC (site ATCTAGACTGT) | 0 |
| ATCTATACATGGACCGGTTTTCCCGGTAATCCGTATTTGAC (site ATCTATACTAT) | 0.00827 |
| ATCTATACATGGACCGGTTTTCCCGGTAATCCGTATTTGAC (site ATCTATACTCT) | 0.011 |
| ATCTATACATGGACCGGTTTTCCCGGTAATCCGTATTTGAC (site ATCTATACTGA) | 0.0717 |
| ATCTATACATGGACCGGTTTTCCCGGTAATCCGTATTTGAC (site ATCTATACTGC) | 0 |
| ATCTATACATGGACCGGTTTTCCCGGTAATCCGTATTTGAC (site ATCTATACTGG) | 0 |
| ATCTATACATGGACCGGTTTTCCCGGTAATCCGTATTTGAC (site ATCTATACTGT) | 2.44 |
| ATCTATACATGGACCGGTTTTCCCGGTAATCCGTATTTGAC (site ATCTATACTTT) | 0.0131 |
| ATCTATACATGGACCGGTTTTCCCGGTAATCCGTATTTGAC (site ATCTATCCTGT) | 0 |
| ATCTATACATGGACCGGTTTTCCCGGTAATCCGTATTTGAC (site ATCTATGCTGT) | 0 |
| ATCTATACATGGACCGGTTTTCCCGGTAATCCGTATTTGAC (site ATCTATTCTGT) | 0.327 |
| ATCTATACATGGACCGGTTTTCCCGGTAATCCGTATTTGAC (site ATCTCTACTGT) | 0 |
| ATCTATACATGGACCGGTTTTCCCGGTAATCCGTATTTGAC (site ATCTGTACTGT) | 0 |
| ATCTATACATGGACCGGTTTTCCCGGTAATCCGTATTTGAC (site ATCTTTACTGT) | 0 |

| Sequence | recombinant UMI read abundance (log10) |
| --- | --- |
| ATCTATACATGGACCGGTTTTCCCGGTAATCCGTATTTGAC (site ATGTATACTGT) | 1.03 |
| ATCTATACATGGACCGGTTTTCCCGGTAATCCGTATTTGAC (site ATTTATACTGT) | 0 |
| ATCTATACATGGACCGGTTTTCCCGGTAATCCGTATTTGAC (site CTCTATACTGT) | 2.17 |
| ATCTATACATGGACCGGTTTTCCCGGTAATCCGTATTTGAC (site GTCTATACTGT) | 0.424 |
| ATCTATACATGGACCGGTTTTCCCGGTAATCCGTATTTGAC (site TTCTATACTGT) | 1.19 |
| ATCTATGCATGGACCGGTTTTCCCGGTAATCCGTATTTGAC (site ATCTATACTGT) | 2.11 |
| ATCTATGCATGGACCGGTTTTCCCGGTAATCCGTATTTGAC (site ATCTATCCTGT) | 0 |
| ATCTATGCATGGACCGGTTTTCCCGGTAATCCGTATTTGAC (site ATCTATGCTGT) | 2.57 |
| ATCTATGCATGGACCGGTTTTCCCGGTAATCCGTATTTGAC (site ATCTATTCTGT) | 0 |
| ATCTCAGCATGGACCGGTTTTCCCGGTAATCCGTATTTGGG (site AACTCAGCTCC) | 0.0145 |
| ATCTCAGCATGGACCGGTTTTCCCGGTAATCCGTATTTGGG (site ACCTCAGCTCC) | 0.01 |
| ATCTCAGCATGGACCGGTTTTCCCGGTAATCCGTATTTGGG (site AGCTCAGCTCC) | 0.0129 |
| ATCTCAGCATGGACCGGTTTTCCCGGTAATCCGTATTTGGG (site ATCTCAGCTCC) | 0.323 |
| ATCTCTACATGGACCGGTTTTCCCGGTAATCCGTATTTGAC (site ATCTATACTGT) | 0.264 |
| ATCTCTACATGGACCGGTTTTCCCGGTAATCCGTATTTGAC (site ATCTCTACTGT) | 2.29 |
| ATCTCTACATGGACCGGTTTTCCCGGTAATCCGTATTTGAC (site ATCTGTACTGT) | 0.00346 |
| ATCTCTACATGGACCGGTTTTCCCGGTAATCCGTATTTGAC (site ATCTTTACTGT) | 0 |
| ATCTGGACATGGACCGGTTTTCCCGGTAATCCGTATTTGCC (site ATCTGGACTGG) | 1.25 |
| ATCTGTGCATGGACCGGTTTTCCCGGTAATCCGTATTTGGC (site ATCTGTGCTGC) | 0 |
| ATCTTCCCATGGACCGGTTTTCCCGGTAATCCGTATTTGCA (site ATCTTCCCTTG) | 0.523 |
| ATCTTTACATGGACCGGTTTTCCCGGTAATCCGTATTTGAC (site ATCTATACTGT) | 0.832 |
| ATCTTTACATGGACCGGTTTTCCCGGTAATCCGTATTTGAC (site ATCTCTACTGT) | 0 |
| ATCTTTACATGGACCGGTTTTCCCGGTAATCCGTATTTGAC (site ATCTGTACTGT) | 0.247 |

| Sequence | recombinant UMI read abundance (log10) |
| --- | --- |
| ATCTTTACATGGACCGGTTTTCCCGGTAATCCGTATTTGAC (site ATCTTTACTGT) | 0.661 |
| ATGAACACATGGACCGGTTTTCCCGGTAATCCGTATTTGTG (site ATGAACACTCA) | 1.96 |
| ATGACATCATGGACCGGTTTTCCCGGTAATCCGTATTTGAT (site ATGACATCTAT) | 2.14 |
| ATGACGGCATGGACCGGTTTTCCCGGTAATCCGTATTTGAG (site ATGACGGCTCT) | 1.39 |
| ATGACTCCATGGACCGGTTTTCCCGGTAATCCGTATTTGGA (site ATGACTCCTTC) | 0.437 |
| ATGACTGCATGGACCGGTTTTCCCGGTAATCCGTATTTGCG (site ATGACTGCTCG) | 1.7 |
| ATGAGCGCATGGACCGGTTTTCCCGGTAATCCGTATTTGGG (site ATGAGCGCTCC) | 0.00562 |
| ATGAGGACATGGACCGGTTTTCCCGGTAATCCGTATTTGCT (site ATGAGGACTAG) | 2.89 |
| ATGATATCATGGACCGGTTTTCCCGGTAATCCGTATTTGCA (site ATGATATCTTG) | 2.39 |
| ATGATCTCATGGACCGGTTTTCCCGGTAATCCGTATTTGCG (site ATGATCTCTCG) | 3.11 |
| ATGCAAACATGGACCGGTTTTCCCGGTAATCCGTATTTGGA (site ATGCAAACTTC) | 1.69 |
| ATGCAGACATGGACCGGTTTTCCCGGTAATCCGTATTTGTT (site ATGCAGACTAA) | 1.92 |
| ATGCCATCATGGACCGGTTTTCCCGGTAATCCGTATTTGCA (site ATGCCATCTTG) | 1.98 |
| ATGCGTTCATGGACCGGTTTTCCCGGTAATCCGTATTTGGG (site ATGCGTTCTCC) | 1.05 |
| ATGGAAACATGGACCGGTTTTCCCGGTAATCCGTATTTGCG (site ATGGAAACTCG) | 2.39 |
| ATGGAGACATGGACCGGTTTTCCCGGTAATCCGTATTTGTA (site ATGGAGACTTA) | 2.41 |
| ATGGAGACATGGACCGGTTTTCCCGGTAATCCGTATTTGTG (site ATGGAGACTCA) | 1.96 |
| ATGGAGGCATGGACCGGTTTTCCCGGTAATCCGTATTTGGC (site ATGAAGGCTGC) | 2.07 |
| ATGGAGGCATGGACCGGTTTTCCCGGTAATCCGTATTTGGC (site ATGCAGGCTGC) | 1.03 |
| ATGGAGGCATGGACCGGTTTTCCCGGTAATCCGTATTTGGC (site ATGGAGGCTGC) | 2.53 |
| ATGGAGGCATGGACCGGTTTTCCCGGTAATCCGTATTTGGC (site ATGTAGGCTGC) | 1.48 |
| ATGGAGGCATGGACCGGTTTTCCCGGTAATCCGTATTTGTG (site ATGGAGGCTCA) | 1.11 |
